Reference: patent US12528790B2, “Amide derivative having antiviral activity” (Shionogi & Co., Ltd., priority 2020, dated 2026)

system: RSV A2 strain; test: In vitro CPE (CytoPathic Effect) inhibition effect evaluation test, RSV type A; format: cell-based; settings: human respiratory syncytial virus, HEp-2
Outline: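 EC50 is the concentration giving 50% inhibition of virus-induced cytopathic effect, fitted by nonlinear regression from CellTiter-Glo 2.0 viability. Compounds in 3-fold series were co-incubated at 37 °C with HEp-2 cells and RSV: A2 strain for 4 days, B (Wash/18537) for 5 days; uninfected wells served as control.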

SMILES	EC50
NC(=O)C1(NC(=O)c2cnc(N3CC4(CCNCC4)c4cc(OCCC5CCOCC5)ccc43)nc2C(F)(F)F)C2CC3CC(C2)CC1C3 (stereo not shown) [Compound I-171]	0.01 to 0.1 µM

same assay, conditions: human respiratory syncytial virus, HEp-2, 96 h, read-out: EC50, inhibitory effect against RSV type A (CPE inhibition)

SMILES	EC50
O=C(NC1(C(=O)O)C2CC3CC(C2)CC1C3)c1cnc(N2C(=O)C3(C=CCC3)c3cc(OC4CCN(c5ncccn5)CC4)ccc32)nc1C(F)(F)F (racemic) [Compound I-269]	0.0013 µM

same assay, conditions: human respiratory syncytial virus; inhibitory effect against RSV type A (RSV A2 strain), HEp-2 cells, CPE inhibition; read-out: EC50

SMILES	EC50
O=C(NC1(C(=O)O)CCCCC1)c1cnc(N2CCc3cc(C4=CCCN(Cc5ccccc5)C4)ccc32)nc1C(F)(F)F [Compound I-70]	0.01 to 0.1 µM
O=C(NC1(C(=O)O)C2CC3CC(C2)CC1C3)c1cnc(-c2cn(C3CCC(F)(F)CC3)c3cc(OC4CCN(c5cc(F)ccn5)CC4)ccc23)nc1C(F)(F)F (stereo not shown) [Compound I-411]	< 0.01 µM
O=C(NC1(C(=O)O)C2CC3CC(C2)CC1C3)c1ccc(-c2cn(-c3ccc(F)cn3)c3cc(OC4CCN(c5ncccn5)CC4)ccc23)nc1C(F)(F)F (stereo not shown) [Compound I-290]	< 0.01 µM
O=C(NC1(C(=O)NS(=O)(=O)N2CCOCC2)CCCCC1)c1cnc(N2CCc3cc(OCCC4CCOCC4)ccc32)nc1C(F)(F)F [Compound I-38]	0.01 to 0.1 µM
O=C(NC1(C(=O)O)CCCCC1)c1cnc(N2CCc3cc(NC4CCN(c5ncccn5)CC4)ccc32)nc1C(F)(F)F [Compound I-67]	0.01 to 0.1 µM
O=C(NC1(C(=O)O)CCCC1)c1cnc(N2CCc3cc(OC4CCN(c5ncccn5)CC4)ccc32)nc1C(F)(F)F [Compound I-48]	< 0.01 µM
COc1cccc(CCc2ccc3c(c2)CCN3c2ncc(C(=O)NC3(C(=O)O)CCCCC3)c(C(F)(F)F)n2)c1 [Compound I-26]	0.01 to 0.1 µM
O=C(NC1(C(=O)O)C2CC3CC(C2)CC1C3)c1cnc(-c2cn(C3CCC(F)(F)CC3)c3cc(OC4CCC5(CC4)CN(c4ncccn4)C5)ccc23)nc1C(F)(F)F (stereo not shown) [Compound I-369]	< 0.01 µM
O=C(NC1(C(=O)O)C2CC3CC(C2)CC1C3)c1cnc(-c2cn(Cc3ccccc3)c3cc(OC4CCN(c5ncc(F)cn5)CC4)ccc23)nc1C(F)(F)F (stereo not shown) [Compound I-446]	< 0.01 µM
O=C(NC1(C(=O)O)C2CC3CC(C2)CC1C3)c1ccc(-c2cn(C(=O)OC3CCCCC3)c3cc(OC4CCN(c5ncccn5)CC4)ccc23)nc1C(F)(F)F (stereo not shown) [Compound I-150]	< 0.01 µM
CC(C)C(=O)N1CCC(Oc2ccc3c(c2)CCN3c2ncc(C(=O)NC3(C(=O)O)CCCCC3)c(C(F)(F)F)n2)CC1 [Compound I-65]	0.01 to 0.1 µM
N#C[C@H]1CC[C@@H](n2cc(-c3ccc(C(=O)NC4(C(=O)O)C5CC6CC(C5)CC4C6)c(C(F)(F)F)n3)c3ccc(OC4CCN(c5ncccn5)CC4)cc32)CC1 (stereo partly shown) [Compound I-186]	< 0.01 µM
COc1ccc(CCc2ccc3c(c2)CCN3c2ncc(C(=O)NC3(C(=O)O)CCCCC3)c(C(F)(F)F)n2)cc1 [Compound I-25]	0.01 to 0.1 µM
O=C(NC1(C(=O)O)CCCCC1)c1cnc(N2CCc3cc(OCC4CN(c5ncccn5)CCO4)ccc32)nc1C(F)(F)F (racemic) [Compound I-66]	0.01 to 0.1 µM
O=C(NC1(C(=O)O)C2CC3CC(C2)CC1C3)c1ccc(-c2cn(C3CCC(F)(F)CC3)c3cc(OC4CCCN(C5COC5)C4)ccc23)nc1C(F)(F)F (racemic) [Compound I-235]	< 0.01 µM
COc1ccc(N2CCC(Oc3ccc4c(c3)CCN4c3ncc(C(=O)NC4(C(=O)O)CCCCC4)c(C(F)(F)F)n3)CC2)nc1 [Compound I-78]	< 0.01 µM
CC1CC(Oc2ccc3c(-c4ncc(C(=O)NC5(C(=O)O)C6CC7CC(C6)CC5C7)c(C(F)(F)F)n4)cn(C4CCC(F)(F)CC4)c3c2)CCN1c1ncc(F)cn1 (single isomer, unassigned) [Compound I-385]	< 0.01 µM
COc1cccc(/C=C/c2ccc3c(c2)CCN3c2ncc(C(=O)NC3(C(=O)O)CCCCC3)c(C(F)(F)F)n2)c1 [Compound I-24]	0.01 to 0.1 µM
O=C(NC(C(=O)O)C1CCCCC1)c1cnc(N2CCc3cc(OC4CCN(c5ncccn5)CC4)ccc32)nc1C(F)(F)F (racemic) [Compound I-50]	0.01 to 0.1 µM
O=C(NC1(C(=O)O)C2CC3CC(C2)CC1C3)c1cnc(-c2cn(C3CCC(F)(F)CC3)c3cc(OC4CCN(c5ncc(F)cc5F)CC4)ccc23)nc1C(F)(F)F (stereo not shown) [Compound I-432]	< 0.01 µM
Cc1nsc(COc2ccc3c(c2)CCN3c2ncc(C(=O)NC3(C(=O)O)CCCCC3)c(C(F)(F)F)n2)n1 [Compound I-43]	0.01 to 0.1 µM
O=C(NC1(C(=O)O)C2CC3CC(C2)CC1C3)c1ccc(-c2cn(-c3cccc(F)c3)c3cc(OC4CCN(c5ncccn5)CC4)ccc23)nc1C(F)(F)F (stereo not shown) [Compound I-390]	< 0.01 µM

More lines, now with the values ahead:

EC50	SMILES
< 0.01 µM	O=C(NC1(C(=O)O)C2CC3CC(C2)CC1C3)c1cnc(-c2cn(C3CCC(F)(F)CC3)c3cc(OC4CCC(C(F)(F)F)CC4)ccc23)nc1C(F)(F)F (stereo not shown) [Compound I-428]
< 0.01 µM	Cc1nc(N2CC3(CCOCC3)c3cc(OC4CCN(c5ncccn5)CC4)ccc32)nc(C(F)(F)F)c1C(=O)NC1(C(=O)O)C2CC3CC(C2)CC1C3 (stereo not shown) [Compound I-229]
< 0.01 µM	O=C(N[C@@]1(C(=O)O)[C@@H]2C[C@@H]3C[C@H]1C[C@@](F)(C3)C2)c1cnc(N2CCc3cc(OCCC4CCOCC4)ccc32)nc1C(F)(F)F [Compound I-163]
< 0.01 µM	CC(F)(F)c1nc(N2CCc3cc(OCCC4CCOCC4)ccc32)ncc1C(=O)NC1(C(=O)O)C2CC3CC(C2)CC1C3 (stereo not shown) [Compound I-161]
< 0.01 µM	Cn1ccc(CCOc2ccc3c(-c4ncc(C(=O)NC5(C(=O)O)C6CC7CC(C6)CC5C7)c(C(F)(F)F)n4)cn(C4CCC(F)(F)CC4)c3c2)n1 (stereo not shown) [Compound I-366]
< 0.01 µM	O=C(NC1(C(=O)O)C2CC3CC(C2)CC1C3)c1cnc(-n2c3ccccc3c3cc(OCCC4CCOCC4)ccc32)nc1C(F)(F)F (stereo not shown) [Compound I-141]
< 0.01 µM	Cn1nc(-c2ccc(C(=O)NC3(C(=O)O)C4CC5CC(C4)CC3C5)c(C(F)(F)F)n2)c2ccc(OCCC3CCOCC3)cc21 (stereo not shown) [Compound I-127]
< 0.01 µM	Cn1cc(-c2ncc(C(=O)NC3(C(=O)O)C4CC5CC(C4)CC3C5)c(C(F)(F)F)n2)c2ccc(OCCC3CCOCC3)cc21 (stereo not shown) [Compound I-116]
0.1 to 5 µM	COc1ccc2c(n1)C1(CCOCC1)CN2c1ncc(C(=O)NC2(C(=O)O)CCCCC2)c(C(F)(F)F)n1 [Compound I-90]
< 0.01 µM	O=C(NC1(C(=O)O)C2CC3CC(C2)CC1C3)c1cnc(N2CC3(CCOCC3)c3cc(Nc4ccc(C(F)(F)F)cn4)ccc32)nc1C(F)(F)F (stereo not shown) [Compound I-436]
< 0.01 µM	NC(=O)[C@@]1(NC(=O)c2cnc(N3CC4(CCOCC4)c4cc(OC5CCN(c6ncccn6)CC5)ccc43)nc2C(F)(F)F)[C@@H]2CC3C[C@H]1C[C@@](F)(C3)C2 [Compound I-166]
0.1 to 5 µM	NC(=O)c1cc(C(=O)NC2(C(=O)O)C3CC4CC(C3)CC2C4)c(C(F)(F)F)nc1N1CCc2cc(OCCC3CCOCC3)ccc21 (stereo not shown) [Compound I-156]
< 0.01 µM	O=C(NC1(C(=O)O)C2CC3CC(C2)CC1C3)c1ccc(-c2cn(C3CCOCC3)c3cc(OC4CCN(c5ncccn5)CC4)c(F)cc23)nc1C(F)(F)F (stereo not shown) [Compound I-222]
0.01 to 0.1 µM	CCC(F)(F)c1nc(N2CCc3cc(OCCC4CCOCC4)ccc32)ncc1C(=O)NC1(C(=O)O)C2CC3CC(C2)CC1C3 (stereo not shown) [Compound I-178]
0.01 to 0.1 µM	O=C(NC1(C(=O)O)C2CC3CC(C2)CC1C3)c1cnc(N2CC3(CCOCC3)c3cc(O)ccc32)nc1C(F)(F)F (stereo not shown) [Compound I-201]
< 0.01 µM	O=C(NC1(C(=O)O)C2CC3CC(C2)CC1C3)c1cnc(-c2cn(C3CCC(F)(F)CC3)c3cc(OC4CCN(C5CCOCC5)CC4)ccc23)nc1C(F)(F)F (stereo not shown) [Compound I-242]
< 0.01 µM	O=C(NC1(C(=O)O)C2CC3CC(C2)CC1C3)c1cnc(N2CC3(CCOCC3)c3cc(C4CC4)ccc32)nc1C(F)(F)F (stereo not shown) [Compound I-115]

same assay, conditions: inhibitory effect against RSV type A (RSV A2 strain), HEp-2 cells, CPE inhibition; read-out: EC50

SMILES	EC50
Cn1cc(-n2cc(-c3ccc(C(=O)NC4(C(=O)O)C5CC6CC(C5)CC4C6)c(C(F)(F)F)n3)c3ccc(OC4CCN(c5ncccn5)CC4)cc32)cn1 (stereo not shown) [Compound I-328]	< 0.01 µM
Cc1ccccc1-n1cc(-c2ccc(C(=O)NC3(C(=O)O)C4CC5CC(C4)CC3C5)c(C(F)(F)F)n2)c2ccc(OC3CCN(c4ncccn4)CC3)cc21 (stereo not shown) [Compound I-314]	< 0.01 µM
COc1cccnc1-n1cc(-c2ccc(C(=O)NC3(C(=O)O)C4CC5CC(C4)CC3C5)c(C(F)(F)F)n2)c2ccc(OC3CCN(c4ncccn4)CC3)cc21 (stereo not shown) [Compound I-325]	< 0.01 µM
COc1cccc(-n2cc(-c3ccc(C(=O)NC4(C(=O)O)C5CC6CC(C5)CC4C6)c(C(F)(F)F)n3)c3ccc(OC4CCN(c5ncccn5)CC4)cc32)n1 (stereo not shown) [Compound I-296]	< 0.01 µM

Second part, the molecule after the results:

EC50	SMILES
< 0.01 µM	O=C(NC1(C(=O)O)C2CC3CC(C2)CC1C3)c1cnc(N2CC3(CCOCC3)c3nc(OCCC4CCOCC4)ccc32)nc1C(F)(F)F (stereo not shown) [Compound I-105]
< 0.01 µM	O=C(NC1(C(=O)O)C2CC3CC(C2)CC1C3)c1cnc(N2CC3(CCOCC3)c3nc(OC4CCN(c5ncccn5)CC4)ccc32)nc1C(F)(F)F (stereo not shown) [Compound I-107]
< 0.01 µM	COC12CC3CC(C1)C(NC(=O)c1cnc(N4CC5(CCOCC5)c5cc(OC6CCN(c7ncccn7)CC6)ccc54)nc1C(F)(F)F)(C(=O)O)C(C3)C2 (single isomer, unassigned) [Compound I-211]
< 0.01 µM	O=C(NC1(C(=O)O)C2CC3CC(C2)CC1C3)c1cnc(N2CC3(CCOCC3)c3cc(/C=C/CC4CCOCC4)ccc32)nc1C(F)(F)F (stereo not shown) [Compound I-110]
< 0.01 µM	O=C(NC1(C(=O)O)C2CC3CC(C2)CC1C3)c1cnc(N2CC3(CCS(=O)(=O)CC3)c3cc(OC4CCN(c5ncc(F)cn5)CC4)ccc32)nc1C(F)(F)F (stereo not shown) [Compound I-365]
0.01 to 0.1 µM	COc1ccc2c(c1)CCN2c1ncc(C(=O)NC2(C(=O)O)C3CC4CC(C3)CC2C4)c(C(F)(F)F)n1 (stereo not shown) [Compound I-68]
< 0.01 µM	O=C(NC1(C(=O)O)C2CC3CC(C2)CC1C3)c1ccc(N2CC3(CCOCC3)c3cc(OC4CCN(c5ncccn5)CC4)ccc32)nc1C(F)(F)F (stereo not shown) [Compound I-102]
